Test results taken from patent US11186554B2, “Non-fused tricyclic compounds” (VIVACE THERAPEUTICS, INC., priority 2017, dated 2021).

tested on: firefly luciferase activity; experiment: Dual-Glo firefly/renilla luciferase reporter assay in cells; assay type: cell-based; details: 24 h, read-out: Firefly Luciferase IC50 (μM)

Compound | IC50
CCOC(=O)Cn1cc(-c2ccccc2Nc2cccc(C(F)(F)F)c2)nn1 [Compound 18, Ethyl 2-[4-[2-[3-(trifluoromethyl)anilino]phenyl]triazol-1-yl]acetate] | 1 to 5 µM
OCCn1nnc(-c2cccnc2Nc2ccc(C(F)(F)F)cc2)n1 [Compound 69, 2-(5-(2-((4-(trifluoromethyl)phenyl)amino)pyridin-3-yl)-2H-tetrazol-2-yl)ethanol] | 0.1 to 1 µM
COc1ccc(Nc2ccc(C(F)(F)F)cc2)c(-c2nnn(CCO)n2)c1 [Compound 240, 2-[5-[5-methoxy-2-[4-(trifluoromethyl)anilino]phenyl]tetrazol-2-yl]ethanol] | < 0.1 µM
OCCn1nnc(-c2cccc(F)c2Nc2ccc(C(F)(F)F)cc2)n1 [Compound 188, 2-(5-(3-fluoro-2-((4-(trifluoromethyl)phenyl)amino)phenyl)-2H-tetrazol-2-yl)ethanol] | < 0.1 µM
OCCn1nnc(-c2cc(OC(F)F)ccc2Nc2ccc(C(F)(F)F)cc2)n1 [Compound 260, 2-(5-(5-(difluoromethoxy)-2-((4-(trifluoromethyl)phenyl)amino)phenyl)-2H-tetrazol-2-yl)ethanol] | < 0.1 µM
OCCn1nnc(-c2ccccc2Nc2cccc(F)c2)n1 [Compound 10, 2-(5-(2-((3-fluorophenyl)amino)phenyl)-2H-tetrazol-2-yl)ethanol] | 0.1 to 1 µM
CC(O)Cn1nnc(-c2ccccc2Nc2ccc(C(F)(F)F)cc2)n1 (stereo not shown) [Compound 105, 1-[5-[2-[4-(trifluoromethyl)anilino]phenyl]tetrazol-2-yl]propan-2-ol] | < 0.1 µM
FC(F)OCCn1nnc(-c2ccccc2Nc2ccc(C(F)(F)F)cc2)n1 [Compound 183, 2-(2-(2-(difluoromethoxy)ethyl)-2H-tetrazol-5-yl)-N-(4-(trifluoromethyl)phenyl)aniline] | 0.1 to 1 µM
OCCn1nnc(-c2cccnc2Nc2ccc(OC(F)(F)F)cc2)n1 [Compound 75, 2-(5-(2-((4-(trifluoromethoxy)phenyl)amino)pyridin-3-yl)-2H-tetrazol-2-yl)ethanol] | 0.1 to 1 µM
OCCn1cnc(-c2ccccc2Nc2ccc(C(F)(F)F)cc2)c1 [Compound 197, 2-(4-(2-((4-(trifluoromethyl)phenyl)amino)phenyl)-1H-imidazol-1-yl)ethan-1-ol] | 0.1 to 1 µM
O=C(Cn1nnc(-c2ccccc2Nc2ccc(C(F)(F)F)cc2)n1)NO [Compound 113, 2-[5-[2-[4-(trifluoromethyl)anilino]phenyl]tetrazol-2-yl]ethanehydroxamic acid] | 0.1 to 1 µM
OCCn1nnc(-c2ccccc2Nc2ccc(Br)cc2)n1 [Compound 207, 2-(5-(2-((4-bromophenyl)amino)phenyl)-2H-tetrazol-2-yl)ethan-1-01] | 0.1 to 1 µM

same assay, conditions: 24 hrs compound treatment, starting from 3 uM, 1:3 dilution, 10 points; read-out: Firefly Luciferase IC50

Compound | IC50
FC(F)(F)c1ccc(Nc2ccccc2-c2nnn(Cc3cccnc3)n2)cc1 [Compound 40, 2-[2-(3-pyridylmethyl)tetrazol-5-yl]-N-[4-(trifluoromethyl)phenyl]aniline] | 0.1 to 1 µM
OCCn1nnc(-c2ccccc2Nc2ccc(SC(F)(F)F)cc2)n1 [Compound 248, 2-(5-(2-((4-((trifluoromethyl)thio)phenyl)amino)phenyl)-2H-tetrazol-2-yl)ethanol] | 0.1 to 1 µM
CCOC(=O)Cn1ncc(-c2ccccc2Nc2ccc(C(F)(F)F)cc2)c1C [Compound 77, ethyl 2-[5-methyl-4-[2-[4-(trifluoromethyl)anilino]phenyl]pyrazol-1-yl]acetate] | < 0.1 µM
CC(CO)c1nc(-c2ccccc2Nc2ccc(C(F)(F)F)cc2)nn1C (stereo not shown) [Compound 206, 2-(1-methyl-3-(2-((4-(trifluoromethyl)phenyl)amino)phenyl)-1H-1,2,4-triazol-5-yl)propan-1-ol] | 1 to 5 µM
COCC(C)n1nnc(-c2ccccc2Nc2ccc(C(F)(F)F)cc2)n1 (stereo not shown) [Compound 129, 2-(2-(1-methoxypropan-2-yl)-2H-tetrazol-5-yl)-N-(4-(trifluoromethyl)phenyl) Aniline] | < 0.1 µM
CCOC(=O)Cn1cc(-c2ccccc2Nc2cccc(C(F)(F)F)c2)cn1 [Compound 58, ethyl 2-(4-(2-((3-(trifluoromethyl)phenyl)amino)phenyl)-1H-pyrazol-1-yl)acetate] | 0.1 to 1 µM
CCOC(=O)Cn1cnc(-c2ccccc2Nc2ccc(C(F)(F)F)cc2)c1 [Compound 202, ethyl 2-(4-(2-((4-(trifluoromethyl)phenyl)amino)phenyl)-1H-imidazol-1-yl)acetate] | 0.1 to 1 µM
FC(F)(F)c1ccc(Nc2ccccc2-c2nnn(C3CCOCC3)n2)cc1 [Compound 122, 2-(2-tetrahydropyran-4-yltetrazol-5-yl)-N-[4-(trifluoromethyl)phenyl]aniline] | 0.1 to 1 µM
NC(=O)NCCn1nnc(-c2ccccc2Nc2ccc(C(F)(F)F)cc2)n1 [Compound 108, 2-[5-[2-[4-(trifluoromethyl)anilino]phenyl]tetrazol-2-yl]ethylurea] | < 0.1 µM
CNCCn1nnc(-c2ccccc2Nc2ccc(C(F)(F)F)cc2)n1 [Compound 219, 2-(2-(2-(methylamino)ethyl)-2H-tetrazol-5-yl)-N-(4-(trifluoromethyl)phenyl) Aniline] | 0.1 to 1 µM
OCCn1nnc(-c2ccccc2Nc2ccc(C(F)(F)F)c(Cl)c2)n1 [Compound 246, 2-(5-(2-((3-chloro-4-(trifluoromethyl)phenyl)amino)phenyl)-2H-tetrazol-2-yl)ethanol] | < 0.1 µM
Cn1nc(-c2ccccc2Nc2ccc(C(F)(F)F)cc2)nc1CCO [Compound 205, 2-(1-methyl-3-(2-((4-(trifluoromethyl)phenyl)amino)phenyl)-1H-1,2,4-triazol-5-yl)ethan-1-ol] | 1 to 5 µM

Now from value to molecule:

IC50 | Compound
< 0.1 µM | CO[C@@H](C)[C@H](C)n1nnc(-c2ccccc2Nc2ccc(C(F)(F)F)cc2)n1 [Compound 210, 2-(2-((2S,3S)-3-methoxybutan-2-yl)-2H-tetrazol-5-yl)-N-(4-(trifluoromethyl)phenyl)aniline]
< 0.1 µM | OCCn1nnc(-c2cc(Br)ccc2Nc2ccc(C(F)(F)F)cc2)n1 [Compound 254, 2-[5-[5-bromo-2-[4-(trifluoromethyl)anilino]phenyl]tetrazol-2-yl]ethanol]
0.1 to 1 µM | O=C(Cn1nnc(-c2ccccc2Nc2ccc(C(F)(F)F)cc2)n1)N1CCCC1 [Compound 45, 1-pyrrolidin-1-yl-2-[5-[2-[4-(trifluoromethyl)anilino]phenyl]tetrazol-2-yl]ethanone]
< 0.1 µM | CO[C@@H](C)[C@@H](C)n1nnc(-c2ccccc2Nc2ccc(C(F)(F)F)cc2)n1 [Compound 212, 2-(2-((2R,3S)-3-methoxybutan-2-yl)-2H-tetrazol-5-yl)-N-(4-(trifluoromethyl)phenyl)aniline]
0.1 to 1 µM | CC(=O)N1CC(O)(Cn2nnc(-c3ccccc3Nc3ccc(C(F)(F)F)cc3)n2)C1 [Compound 161, 1-[3-hydroxy-3-[[5-[2-[4-(trifluoromethyl)anilino]phenyl]tetrazol-2-yl]methyl]azetidin-1-yl]ethanone]
0.1 to 1 µM | OC1(Cn2nnc(-c3ccccc3Nc3ccc(C(F)(F)F)cc3)n2)CCCOC1 (stereo not shown) [Compound 142, 3-[[5-[2-[4-(trifluoromethyl)anilino]phenyl]tetrazol-2-yl]methyl]tetra hydropyran-3-ol]
0.1 to 1 µM | [N-]=[N+]=Nc1ccc(Nc2ccccc2-c2nnn(CCO)n2)cc1 [Compound 179, 2-[5-[2-(4-azidoanilino)phenyl]tetrazol-2-yl]ethanol]
1 to 5 µM | FC(F)(F)c1ccc(Nc2ccccc2-c2nnn(C3CNC3)n2)cc1 [Compound 221, 2-(2-(azetidin-3-yl)-2H-tetrazol-5-yl)-N-(4-(trifluoromethyl)phenyl)aniline]
0.1 to 1 µM | O[C@H]1CNC[C@@H]1n1nnc(-c2ccccc2Nc2ccc(C(F)(F)F)cc2)n1 [Compound 234, (3S,4S)-4-(5-(2-((4-(trifluoromethyl)phenyl)amino)phenyl)-2H-tetrazol-2-yl)pyrrolidin-3-ol]
0.1 to 1 µM | CC(=O)NCCCn1nnc(-c2ccccc2Nc2ccc(C(F)(F)F)cc2)n1 [Compound 111, N-[3-[5-[2-[4-(trifluoromethyl)anilino]phenyl]tetrazol-2-yl]propyl]acetamide]
0.1 to 1 µM | NCCn1nnc(-c2ccccc2Nc2ccc(C(F)(F)F)cc2)n1 [Compound 228, 2-(2-(2-aminoethyl)-2H-tetrazol-5-yl)-N-(4-(trifluoromethyl)phenyl)aniline]
1 to 5 µM | NS(=O)(=O)NCCn1nnc(-c2ccccc2Nc2ccc(C(F)(F)F)cc2)n1 [Compound 99, 2-[2-(sulfamoylamino)ethyl]-5-[2-[4-(trifluoromethyl)anilino]phenyl]tetrazole]
< 0.1 µM | OC1(Cn2nnc(-c3ccccc3Nc3ccc(C(F)(F)F)cc3)n2)CSC1 [Compound 244, 3-[[5-[2-[4-(trifluoromethyl)anilino]phenyl]tetrazol-2-yl]methyl]thietan-3-ol]
< 0.1 µM | CCc1ccc(Nc2ccc(C(F)(F)F)cc2)c(-c2nnn(CCO)n2)c1 [Compound 256, 2-[5-[5-ethyl-2-[4-(trifluoromethyl)anilino]phenyl]tetrazol-2-yl]ethanol]
1 to 5 µM | Cn1nc(-c2ccccc2Nc2ccc(C(F)(F)F)cc2)cc1CCO [Compound 196, 2-(1-methyl-3-(2-((4-(trifluoromethyl)phenyl)amino)phenyl)-1H-pyrazol-5-yl)ethan-1-ol]
0.1 to 1 µM | OCCn1nnc(-c2ccccc2Nc2ccc(Cl)c(Cl)c2)n1 [Compound 251, 2-(5-(2-((3,4-dichlorophenyl)amino)phenyl)-2H-tetrazol-2-yl)ethanol]
< 0.1 µM | COCCn1nnc(-c2ccccc2Nc2ccc(C(F)(F)F)cc2)n1 [Compound 173, 2-(2-(2-methoxyethyl)-2H-tetrazol-5-yl)-N-(4-(trifluoromethyl)phenyl)aniline]
0.1 to 1 µM | O=C1NCC(Cn2nnc(-c3ccccc3Nc3ccc(C(F)(F)F)cc3)n2)N1 (stereo not shown) [Compound 167, 4-((5-(2-((4-(trifluoromethyl)phenyl)amino)phenyl)-2H-tetrazol-2-yl)methyl)imidazolidin-2-one]
< 0.1 µM | C[C@H](O)[C@@H](C)n1nnc(-c2ccccc2Nc2ccc(C(F)(F)F)cc2)n1 [Compound 195, (2S,3R)-3-(5-(2-((4-(trifluoromethyl)phenyl)amino)phenyl)-2H-tetrazol-2-yl)butan-2-ol]
